According to US11491245B2, “Gadolinium chelate compounds for use in magnetic resonance imaging” (BAYER PHARMA AKTIENGESELLSCHAFT, priority 2015, dated 2022):
Read-outs that look alike come from different tables or passages of the source.

Assays:
[1] = Pharmacokinetic parameters in rats (blood plasma kinetic); assay type: in vivo, male rats (Han-Wistar); details: male rats, 0.1 mmol Gd/kg bolus tail vein, mean
Procedure: Pharmacokinetic parameters of the compound of Example 3 were determined in male rats (Han-Wistar, 220-230 g, n=3). The compound was administered as a sterile aqueous solution (52.5 mmol Gd/L) as a bolus in the tail vein of the animals. The dose was 0.1 mmol Gd/kg. Blood was sampled 1, 3, 5, 10, 15, 30, 60, 90, 120, 240, 360, 480 and 1440 min post injection and the Gd concentration was determined by Inductively Coupled Plasma Mass Spectroscopy (ICP-MS Agilent 7500a, Waldbronn, Germany). The blood level was converted to plasma concentrations by division by 0.625 (plasma fraction of rat blood, assuming strictly extracellular distribution). As a control, 3 animals were treated in the same way with Gadovist®, a low molecular weight contrast agent.
The fit of the obtained data to a three compartment model (Phoenix—WinNonlin) yielded the pharmacokinetic parameters which are shown in Table 3.

[2] = 37° C., cited from earlier work
[3] = Whole body imaging (dynamic MRI and tissue Gd concentration); assay type: in vivo, male New Zealand white rabbits; details: rabbits, tissues 30 min p.i., FIGS. 8A and 8B
Procedure: The study was performed with a clinical whole body MRI equipped with body spine coil, abdomen flex coil, neck coil (1.5 T Magnetom Avanto, Siemens Healthcare, Erlangen, Germany). The study was done using male New Zealand white rabbits (weight 2.3-3.0 kg, n=8, Charles River Kisslegg). All animals were initially anesthetized using a body weight-adjusted intramuscular injection of a mixture (1+2) of xylazine hydrochloride (20 mg/mL, Rompun 2%, Bayer Vital GmbH, Leverkusen, Germany) and ketamine hydrochloride (100 mg/mL, Ketavet, Pfizer, Pharmacia GmbH, Berlin, Germany) using 1 mL/kg body weight. The continuous anesthesia of the intubated animals (endotracheal tube, Rueschelit Super Safe Clear, cuff 3.0 mm, Willy Ruesch AG, Kernen, Germany) was achieved by the intravenous injection of 0.9 mg propofol per kilogram per hour (10 mg/mL, Propofol-Lipuro 1%, B. Braun Melsungen AG, Melsungen, Germany). The continuous intravenous injection was performed using a MR infusion system (Continuum MR Infusion System, Medrad Europe B. V., A E Beek, Germany). The tracheal respiration (SV 900C, Maquet, Rastatt, Germany) was performed with 55% oxygen, forty breaths per minute and a breathing volume of 7 mL per kilogram body weight per minute.
Dynamic MRI measurements up to 22 min post injection with subsequent quantitative signal analysis (Siemens Mean Curve software (SYNGO Task Card, Siemens Healthcare, Erlangen, Germany), were performed for three different regions head and neck (brain, tongue, chops muscle, neck muscle), abdomen (spleen, liver, blood) and pelvis (extremity muscle). For the three different slice groups a 3D T1-weighted Vibe sequence was used (TR=4.74 ms, TE=2.38, flip=10°, 1:29 min). The dynamic measurements of the three slice groups (Head/Neck: 1:29 min, Abdomen: 0:49 min, Pelvis: 1:16 min) were done up to 22 min post injection: 1. Head/Neck: baseline, 1.4, 5.2, 8.9, 12.8, 16.5, 20.4 min, 2. Abdomen: baseline, 0.5, 4.3, 8.1, 11.9, 15.7, 19.5 min and 3. Pelvis: baseline, 2.9, 6.7, 10.5, 14.4, 18.1, 22.0 min. At 30 min post injection the animals were sacrificed and the Gd concentrations were measured using Inductively Coupled Plasma Mass Spectroscopy (ICP-MS Agilent 7500a, Waldbronn, Germany) in the following tissue samples: blood, brain, tongue, liver and extremity muscle. A quantitative image evaluation was performed for the 30 min time point p.i. due to the combination of the quantitative ICP-MS Gadolinium concentrations and the MRI region-of-interest analysis.

[4] = Gadolinium release after the addition of zinc and phosphate (transmetallation); details: phosphate buffer pH 7.00, 2.5 mmol/L gadolinium complex, 2.5 mmol/L ZnCl2, 37° C., up to 72 h, FIG. 2
Procedure: The technique is based on measurement of the evolution of the water proton paramagnetic longitudinal relaxation rate in phosphate buffer (pH 7.00, 26 mmol/L, KH2PO4 Merck, Hessen, Germany) containing 2.5 mmol/L gadolinium complex and 2.5 mmol/L ZnCl2 Sigma-Aldrich, Munich, Germany). […] The mixture was vigorously stirred, and 300 μL were taken out for the relaxometric study at 0 min, 60 min, 120 min, 3 h, 4 h, 5 h, 24 h, 48 h and 72 h. The measurements were performed on a MiniSpec mq60 spectrometer (Bruker Analytik, Karlsruhe, Germany) at 60 MHz and 37° C.

[5] = Chemical stability (autoclaving at 121° C.); assay type: physicochemical; details: 5 mmol Gd/L in 10 mM Tris-HCl buffer, pH 7.4, 121° C. for 20 min
[6] = Relaxivity measurements at 1.41 T; assay type: physicochemical; details: 1.41 T, 37° C., normalized to Gd
Procedure: Relaxivity measurements at 1.41 T were performed using a MiniSpec mq60 spectrometer (Bruker Analytik, Karlsruhe, Germany) operating at a resonance frequency of 60 MHz and a temperature of 37° C. The T1 relaxation times were determined using the standard inversion recovery (IR) method with a fixed relaxation delay of at least 5×T1. The variable inversion time (TI) was calculated automatically by the standard software of the MiniSpec mq60 (8 steps). The T2 measurements were done by using a Carr-Purcell-Meiboom-Gill (CPMG) pulse sequence, applying a relaxation delay of at least 5×T1.
Each relaxivity measurement was performed using three different Gd concentrations (3 concentrations between 0.05 and 2 mM). The T1 and T2 relaxation times of the example compounds 1-10 were measured in different media for example in water, fetal bovine serum (FBS, Sigma, F7524) and human plasma.
(§1) Human plasma preparation: For each experiment fresh blood was taken from a volunteer using 10 mL citrate-tubes (Sarstedt S-Monovette 02.1067.001, 10 mL, Citrate). The 10 mL citrate-tubes were carefully inverted 10 times to mix blood and anticoagulant and centrifuged for 15 minutes at 1811 g at room temperature (Eppendorf, Centrifuge 5810R).
The relaxivities ri (where i=1, 2) were calculated on the basis of the measured relaxation rates Ri in water and plasma: Ri=Ri(0)+ri[CGd], where Ri(0) represent the relaxation rate of the respective solvent and CGd the concentration of the compound normalized to the Gadolinium. The Gadolinium concentrations of the investigated solutions were verified by Inductively Coupled Plasma Mass Spectroscopy (ICP-MS Agilent 7500a, Waldbronn, Germany).

[7] = Relaxivity measurements at 3.0 T; assay type: physicochemical; details: 37° C., normalized to Gd, average ± standard deviation
Procedure: Relaxivity measurements at 3.0 T were performed with a whole body 3.0 T MRI Scanner (Philips Intera, Philips Healthcare, Hamburg, Germany) using a knee-coil (SENSE-Knee-8, Philips Healthcare, Hamburg, Germany). The sample tubes (CryoTubetm Vials, Thermo Scientific 1.8 mL, Roskilde, Denmark) were positioned in 3 rows of 4 and 5 tubes in a plastic holder in a box filled with water. The temperature was adjusted to 37° C. For the MRI sequence, the shortest possible echo-time (TE) with 7.46 milliseconds was used. The inversion times were chosen to optimize the sequence to measure T1 values corresponding to the estimated T1 range of all relaxation times of contrast media containing solutions. The following inversion times (TIs) were applied: 50, 100, 150, 200, 300, 500, 700, 1000, 1400, 2100, 3200, and 4500 milliseconds. The sequence was run with a constant relaxation delay of 3.4 seconds after the registration of the last echo (variable TR in the range from 3450 to 7900 milliseconds). For details of the fit procedure, see Rohrer et. al. (Invest. Radiol. 2005; 40, 11: 715-724). The experimental matrix of the phantom measurement was 320×320.
The relaxivities were evaluated using three different concentrations of each compound (3 concentrations between 0.05 and 2 mM).
as §1, with “The T1 relaxation times of the Example compounds 1-6 were measured in water and human plasma. Human” for “Human”
The relaxivities ri (where i=1, 2) were calculated on the basis of the measured relaxation rates Ri in water and plasma: Ri=Ri(0)+ri[CGd], where Ri(0) represent the relaxation rate of the respective solvent and CGd the concentration of the compound normalized to the Gadolinium (Table 2).

Water solubility = assay type: physicochemical; details: 10 mM Tris-HCl buffer, 20° C.
Procedure: The water solubility of the compounds was determined at room temperature (20° C.) in 0.5 mL buffer solution (10 mM Tris-HCl) in the microcentrifuge tubes (Eppendorf, 2.0 mL safe-lock caps). The solid compound was added stepwise to the buffer solution. The suspension was mixed using a shaker (Heidolph Reax 2000) and treated 5 min in an ultrasound bath (Bandelin, Sonorex Super RK255H) The suspension was stored at room temperature (20° C.) over night and final Gadolinium concentration was determined by inductively coupled plasma mass spectrometry (ICP-MS).

## O=C([O-])CN1CCN(CC(=O)[O-])CCN([C@H](CO)[C@H](O)CO)CCN(CC(=O)[O-])CC1.[Gd+3] (racemic) [Reference compound 1, gadobutrol, reference compound]
[1]
  AUC∞ Area under the curve (to infinity): 11500 µmol·min/L
  MRT Mean residence time: 30.1 min
  V1 + V2 Volume, compartments V1 + V2: 0.25 L/kg
  V2 Volume, compartment V2: 0.12 L/kg
  Vc (V1) Volume, central compartment V1: 0.14 L/kg
  Vd,ss Volume of distribution at steady state: 0.28 L/kg
[1]; three compartment model
  t½ α Half-life, compartment V1: 1.6 min
  t½ β Half-life, compartment V2: 20.5 min
  t½ γ Half-life, compartment V3: 232 min
[2]; reference compounds (marked ^), plasma, 3.0 T, average ± standard deviation
  r1 human plasma: 5.0 ± 0.3 L/mmol/s
[2]; reference compounds (marked ^), 3.0 T, average ± standard deviation
  r1 water: 3.2 ± 0.3 L/mmol/s
[2]; reference compounds, bovine plasma, 1.5 T, from Rohrer et al.
  r1 FBS: 5.2 L/mmol/s
[2]; reference compounds, 1.5 T, from Rohrer et al.
  r1 water: 3.3 L/mmol/s
[3]
  slope of the linear regression between tissue gadolinium concentration and MRI signal change: 1.0
[4]
  stability against transmetallation (relative longitudinal relaxation rate R1p(t)/R1p(0) versus time): high stability

## Hexagadolinium 2,2′,2″,2′″,2″″,2′″″,2″″″,2′″″″,2″″″″,2′″″″″,2″″″″″,2′″″″″″,2″″″″″″, 2′″″″″″″,2″″″″″″″, 2′″″″″″″″,2″″″″″″″″,2′″″″″″″″″-(1,4,7-triazonane-1,4,7-triyltris{carbonyl- 1,4-diazepane-6,1,4-triylbis[(2-oxoethane-2,1-diyl)imino(1-oxopropane-1,2-diyl)-1,4,7,10-tetraazacyclododecane-10,1,4,7-tetrayl]})octadecaacetate [Example 6]
[5]
  appearance of the solution after autoclaving: still clear and colorless
[6]; fetal bovine serum
  r1 FBS: 14.2 L/mmol/s
[6]; human plasma
  r1 human plasma: 14.6 L/mmol/s
[6]; water
  r1 water: 13.4 L/mmol/s
[7]; human plasma
  r1 human plasma: 12.8 ± 0.3 L/mmol/s
[7]; water
  r1 water: 11.3 ± 0.4 L/mmol/s
Water solubility
  Solubility: >1100 mmol Gd/L
